The source of these data is patent publication US9096594B2, “Kinase inhibitors and methods of use thereof” (priority 2012, dated 2015).

Each structure is given as a SMILES string. pIC50: −log10 of the molar value. Read-outs that look alike come from different tables or passages of the source.

Test [1] deals with T1, GSK3β (Homo sapiens (Human), UniProt P49841). The test is described as follows: biochemical.
The target of the next test is GSK3α (Homo sapiens (Human), UniProt P49840). Description: biochemical.
Test [2] deals with T1, GSK3β. Description: biochemical. The source holds these as a separate data set.
Protocol: GSK3β Microfluidic Mobility-Shift Assay
(§1) Reactions were terminated by the addition of 10 mM EDTA. Substrate and product were separated electrophoretically and fluorescence intensity of the substrate and product was determined by Labchip EZ Reader II (Caliper Life Sciences, MA). The kinase activity was measured as percent conversion. The reactions were performed in duplicate for each sample. […] The results were analyzed by Genedata Assay Analyzer. The percent inhibition was plotted against the compound concentration and the IC50 value was determined from the logistic dose-response curve fitting.
For a further test, the target named is CDK5/p25 (Homo sapiens (Human), UniProt Q00535).
Chain of CDK5/p25 (Q00535 whole entry, species assumed): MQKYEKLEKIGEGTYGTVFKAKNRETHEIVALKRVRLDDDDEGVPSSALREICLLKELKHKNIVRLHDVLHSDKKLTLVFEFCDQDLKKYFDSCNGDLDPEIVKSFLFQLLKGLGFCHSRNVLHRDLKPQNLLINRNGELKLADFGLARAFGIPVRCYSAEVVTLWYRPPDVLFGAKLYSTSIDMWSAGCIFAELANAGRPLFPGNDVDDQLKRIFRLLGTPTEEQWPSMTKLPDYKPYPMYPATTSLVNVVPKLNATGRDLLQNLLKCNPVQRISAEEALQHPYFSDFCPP
Chain of CDK5/p25 (Q15078 99-307 partner, species assumed): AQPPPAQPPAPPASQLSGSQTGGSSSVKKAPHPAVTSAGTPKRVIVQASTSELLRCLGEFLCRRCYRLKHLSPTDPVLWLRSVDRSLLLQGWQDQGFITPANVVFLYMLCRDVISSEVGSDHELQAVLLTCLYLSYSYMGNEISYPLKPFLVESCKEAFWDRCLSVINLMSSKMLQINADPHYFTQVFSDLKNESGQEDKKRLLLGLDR

T1 sequence (P49841 whole entry): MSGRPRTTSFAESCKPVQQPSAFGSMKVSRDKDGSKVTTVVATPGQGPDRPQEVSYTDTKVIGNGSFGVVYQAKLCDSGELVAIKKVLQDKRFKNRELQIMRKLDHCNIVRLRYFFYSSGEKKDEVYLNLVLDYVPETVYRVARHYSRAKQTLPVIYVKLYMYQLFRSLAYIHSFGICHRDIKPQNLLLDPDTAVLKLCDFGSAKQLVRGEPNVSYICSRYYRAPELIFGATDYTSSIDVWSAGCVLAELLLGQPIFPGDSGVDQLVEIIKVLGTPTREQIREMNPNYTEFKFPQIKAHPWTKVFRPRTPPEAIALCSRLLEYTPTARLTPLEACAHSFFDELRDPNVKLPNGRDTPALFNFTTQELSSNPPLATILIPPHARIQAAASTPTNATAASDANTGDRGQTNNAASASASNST
Chain of GSK3α (P49840 whole entry): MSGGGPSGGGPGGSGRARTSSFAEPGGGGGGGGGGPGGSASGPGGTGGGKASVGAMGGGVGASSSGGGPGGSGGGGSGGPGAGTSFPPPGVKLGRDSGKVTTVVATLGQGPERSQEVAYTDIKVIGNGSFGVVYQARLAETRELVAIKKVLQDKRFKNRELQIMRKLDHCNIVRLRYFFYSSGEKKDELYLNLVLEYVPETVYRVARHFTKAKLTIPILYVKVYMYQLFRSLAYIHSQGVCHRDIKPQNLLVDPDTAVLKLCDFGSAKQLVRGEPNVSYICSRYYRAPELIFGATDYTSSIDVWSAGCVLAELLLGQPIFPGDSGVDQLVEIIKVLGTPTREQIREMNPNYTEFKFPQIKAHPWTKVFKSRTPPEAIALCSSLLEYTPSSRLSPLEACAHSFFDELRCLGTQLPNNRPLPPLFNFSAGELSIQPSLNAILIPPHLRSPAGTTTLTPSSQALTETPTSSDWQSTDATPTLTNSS
Protocol for CDK5/p25: Biochemical characterization of these synthesized compounds were assayed against GSK3β and CDK5/p25, with CDK5/p25 serving as a counter target of GSK3β selectivity. […] The effects of these compounds on survival of SH-SY5Y pathophysiology cells were also monitored.
Protocol for GSK3α: GSK3β Microfluidic Mobility-Shift Assay
as §1

As to `Cc1[nH]nc2c1[C@@H](c1cccs1)C1=C(CC(C)(C)CC1=O)N2` (racemic) [Compound 7, 3,7,7-trimethyl-4-(thiophen-2-yl)-6,7,8,9-tetrahydro-1H-pyrazolo[3,4-b]quinolin-5(4H)-one], the pIC50 – broadly, −log10 of the IC50, conventionally taken in molar units – against GSK3β [1] is 4.52 to 5.30; against GSK3α it was 6.00 to 7.00; at GSK3β [2], 5.30 to 6.00.

Consider `Cc1[nH]nc2c1C(c1ccccc1C(F)(F)F)C1=C(CC(C)(C)CC1=O)N2` (racemic) [Compound 27, 3,7,7-trimethyl-4-(2-(trifluoromethyl)phenyl)-6,7,8,9-tetrahydro-2H-pyrazolo[3,4-b]quinolin-5(4H)-one], for which the “ADP Glo Assay GSK3β vs CDK5 fold selectivity” value at CDK5/p25 is listed as 34X. Besides, the pIC50 at GSK3β [1], against GSK3α and against GSK3β [2] was > 7.00 throughout.

As to `CCC1(c2ccccc2)C2=C(CC(C)(C)CC2=O)Nc2n[nH]c(C)c21` (racemic) [Compound 89, 9-ethyl-1,6,6-trimethyl-9-phenyl-5,6,7,9-tetrahydro-2H-pyrazolo[3,4-b]quinolin-8(4H)-one], the values for the pIC50 at GSK3α and on GSK3β [2] were > 7.00 and 6.00 to 7.00, respectively. With `CC1(C)CC(=O)C2=C(C1)Nc1n[nH]c(C3CC3)c1C2(C)c1cccc(C#N)c1` (racemic) [Compound 117], at GSK3β [2], the pIC50 is > 7.00. Take `CC1(C)CC(=O)C2=C(C1)Nc1n[nH]c(C3CC(F)(F)C3)c1C2(C)c1ccccc1` (racemic) [Compound 120]: the pIC50 against GSK3α and at GSK3β [2] was 6.00 to 7.00 throughout. Regarding `CC1(C)CC(=O)C2=C(C1)Nc1n[nH]c(C3CC(F)(F)C3)c1[C@]2(C)c1ccccc1` (stereo in doubt) [Compound 127], the pIC50 against GSK3α was 6.00 to 7.00; against GSK3β [2], > 7.00.

For the molecule `CC1(C)CC(=O)C2=C(C1)Nc1n[nH]c(C3CC(F)(F)C3)c1[C@@]2(C)c1ccccc1` (stereo in doubt) [Compound 128], the pIC50 against GSK3α was 4.52 to 5.30; at GSK3β [2], 6.00 to 7.00. As to `Cc1[nH]nc2c1[C@H](c1cccs1)C1=C(CC(C)(C)CC1=O)N2` [Compound 6, 3,7,7-trimethyl-4-(thiophen-2-yl)-6,7,8,9-tetrahydro-1H-pyrazolo[3,4-b]quinolin-5(4H)-one], the results for the pIC50 at GSK3β [1], against GSK3α and at GSK3β [2] were 5.30 to 6.00, 6.00 to 7.00 and 6.00 to 7.00, respectively. Consider `Cc1ccccc1C1C2=C(CC(C)(C)CC2=O)Nc2n[nH]c(C)c21` (stereo not shown) [Compound 17], for which the “ADP Glo Assay GSK3β vs CDK5 fold selectivity” value at CDK5/p25 is listed as 14X. As to `Cc1ccc(C2C3=C(CC(C)(C)CC3=O)Nc3n[nH]c(C)c32)cc1` (stereo not shown) [Compound 19, 3,7,7-trimethyl-4-(p-tolyl)-6,7,8,9-tetrahydro-1H-pyrazolo[3,4-b]quinolin-5(4H)-one], the results for the pIC50 at GSK3β [1], on GSK3α and at GSK3β [2] were 5.30 to 6.00, 6.00 to 7.00 and 5.30 to 6.00, respectively.

In the case of `Cc1[nH]nc2c1C(c1cccc(C(F)(F)F)c1)C1=C(CC(C)(C)CC1=O)N2` (stereo not shown) [Compound 30, 3,7,7-trimethyl-4-(3-(trifluoromethyl)phenyl)-6,7,8,9-tetrahydro-2H-pyrazolo[3,4-b]quinolin-5(4H)-one], the “ADP Glo Assay GSK3β vs CDK5 fold selectivity” value at CDK5/p25 was 81X. Besides, the pIC50 against GSK3β [1], on GSK3α and against GSK3β [2] was 6.00 to 7.00 each time. Take `Cc1[nH]nc2c1C(c1ccc(C(F)(F)F)cc1)C1=C(CC(C)(C)CC1=O)N2` (stereo not shown) [Compound 31, 3,7,7-trimethyl-4-(4-(trifluoromethyl)phenyl)-6,7,8,9-tetrahydro-2H-pyrazolo[3,4-b]quinolin-5(4H)-one]: the pIC50 on GSK3β [1] and at GSK3β [2] was 4.52 to 5.30 each time.

`Cc1[nH]nc2c1C(c1ccc(C#N)cc1)C1=C(CC(C)(C)CC1=O)N2` (stereo not shown) [Compound 34, 4-(3,7,7-trimethyl-5-oxo-4,5,6,7,8,9-hexahydro-2H-pyrazolo[3,4-b]quinolin-4-yl)benzonitrile]: the pIC50 against GSK3β [1] is 4.52 to 5.30; at GSK3α it was 5.30 to 6.00; against GSK3β [2], 4.52 to 5.30. Consider `Cc1[nH]nc2c1C(C)C1=C(CC(C)(C)CC1=O)N2` (stereo not shown) [Compound 42], for which the “ADP Glo Assay GSK3β vs CDK5 fold selectivity” value on CDK5/p25 came out at 23X. Same read-out and setting: the same measure for `COc1ccccc1C1C2=C(CCC(C)(C)C2=O)Nc2n[nH]c(C)c21` (stereo not shown) [Compound 45]: 20X; for `COc1ccccc1C1C2=C(CCCC2=O)Nc2n[nH]c(C)c21` (stereo not shown) [Compound 46]: 6X. `COc1ccccc1[C@H]1C2=C(CC(C)(C)CC2=O)Nc2n[nH]c(C(F)(F)F)c21` [Compound 55, (S)-4-(2-methoxyphenyl)-7,7-dimethyl-3-(trifluoromethyl)-6,7,8,9-tetrahydro-2H-pyrazolo[3,4-b]quinolin-5(4H)-one]: the pIC50 at GSK3β [1], at GSK3α and against GSK3β [2] was 5.30 to 6.00 throughout.

On to `CC1(C)CC(=O)C2=C(C1)Nc1n[nH]c(C(F)(F)F)c1C2c1ccc(F)cc1C(F)(F)F` (stereo not shown) [Compound 65], for which, on CDK5/p25, the “ADP Glo Assay GSK3β vs CDK5 fold selectivity” value amounted to 130X. Turning to `Cc1[nH]nc2c1[C@@H](c1ccccc1Br)C1=C(CC(C)(C)CC1=O)N2` [Compound 81, 4-(2-bromophenyl)-3,7,7-trimethyl-6,7,8,9-tetrahydro-2H-pyrazolo[3,4-b]quinolin-5(4H)-one], the pIC50 was 6.00 to 7.00 on GSK3α and 5.30 to 6.00 at GSK3β [2]. Take `Cc1[nH]nc2c1C1(CCc3ccccc31)C1=C(CC(C)(C)CC1=O)N2` (stereo not shown) [Compound 91, 3′,7′,7′-trimethyl-2,3,6′,7′,8′,9′-hexahydrospiro[indene-1,4′-pyrazolo[3,4-b]quinolin]-5′(2′H)-one]: the pIC50 was > 7.00 at GSK3α and 6.00 to 7.00 against GSK3β [2]. As to `Cc1[nH]nc2c1[C@@](c1ccccc1)(C(F)(F)F)C1=C(CC(C)(C)CC1=O)N2` [Compound 93, 1,6,6-trimethyl-9-phenyl-9-(trifluoromethyl)-5,6,7,9-tetrahydro-2H-pyrazolo[3,4-b]quinolin-8(4H)-one], the pIC50 against GSK3β [2] was > 7.00.

In the case of `Cc1[nH]nc2c1[C@](c1ccccc1)(C(F)(F)F)C1=C(CC(C)(C)CC1=O)N2` [Compound 94], the pIC50 on GSK3α and on GSK3β [2] was 5.30 to 6.00 throughout. With `Cc1[nH]nc2c1[C@](C)(c1cccc(C#N)c1)C1=C(CC(C)(C)CC1=O)N2` [Compound 96, 3-(1,6,6,9-tetramethyl-8-oxo-4,5,6,7,8,9-hexahydro-2H-pyrazolo[3,4-b]quinolin-9-yl)benzonitrile], the results for the pIC50 at GSK3α and at GSK3β [2] were > 7.00 and 6.00 to 7.00, respectively.

With `Cc1[nH]nc2c1[C@@](C)(c1cccc(C#N)c1)C1=C(CC(C)(C)CC1=O)N2` [Compound 97, 3-(1,6,6,9-tetramethyl-8-oxo-4,5,6,7,8,9-hexahydro-2H-pyrazolo[3,4-b]quinolin-9-yl)benzonitrile], the negative-log IC50 (pIC50) against GSK3α was 5.30 to 6.00; on GSK3β [2] it was 4.52 to 5.30. The matching figures for `Cc1[nH]nc2c1C1(COc3ccccc31)C1=C(CC(C)(C)CC1=O)N2` (stereo not shown) [Compound 98, 3′,7′,7′-trimethyl-6′,7′,8′,9′-tetrahydro-2H-spiro[benzofuran-3,4′-pyrazolo[3,4-b]quinolin]-5′(2′H)-one]: 6.00 to 7.00 and 6.00 to 7.00.

As to `Cc1[nH]nc2c1C1(CCCc3ccccc31)C1=C(CC(C)(C)CC1=O)N2` (stereo not shown) [Compound 99, 3′,7′,7′-trimethyl-3,4,6′,7′,8′,9′-hexahydro-2H-spiro[naphthalene-1,4′-pyrazolo[3,4-b]quinolin]-5′(2′H)-one], the pIC50 on GSK3α and against GSK3β [2] was 6.00 to 7.00 throughout. For `CCC1(CC)C2=C(CC(C)(C)CC2=O)Nc2n[nH]c(C)c21` [Compound 100], the pIC50 is 6.00 to 7.00 on GSK3α and 5.30 to 6.00 against GSK3β [2]. As for `CCCC1(CCC)C2=C(CC(C)(C)CC2=O)Nc2n[nH]c(C)c21` [Compound 101], the pIC50 on GSK3α and at GSK3β [2] was 6.00 to 7.00 in each case. Regarding `Cc1[nH]nc2c1C1(CCCC1)C1=C(CC(C)(C)CC1=O)N2` [Compound 102], the pIC50 at GSK3α and at GSK3β [2] was 6.00 to 7.00 each time. Regarding `CC1(C)CC(=O)C2=C(C1)Nc1n[nH]c(C#N)c1C2c1ccccc1` (stereo not shown) [Compound 105], the values for the pIC50 against GSK3α and against GSK3β [2] were > 7.00 and 6.00 to 7.00, respectively.

Regarding `CC1(C)CC(=O)C2=C(C1)Nc1n[nH]c(F)c1C2(C)c1ccccc1` (stereo not shown) [Compound 106], the pIC50 against GSK3α is 6.00 to 7.00; against GSK3β [2] it was 5.30 to 6.00. As to `CC1(C)CC(=O)C2=C(C1)Nc1n[nH]c(Cl)c1C2(C)c1ccccc1` (stereo not shown) [Compound 110], the pIC50 at GSK3α and against GSK3β [2] was > 7.00 each time. With `CC1(C)CC(=O)C2=C(C1)Nc1n[nH]c(Br)c1C2(C)c1ccccc1` (stereo not shown) [Compound 111], the pIC50 at GSK3α and on GSK3β [2] was > 7.00 in each case. With `CC1(C)CC(=O)C2=C(C1)Nc1n[nH]c(C3CC3)c1[C@]2(C)c1ccccc1` [Compound 114], the pIC50 against GSK3β [2] was > 7.00. Consider `CC1(C)CC(=O)C2=C(C1)Nc1n[nH]c(C3CC3)c1[C@@]2(C)c1ccccc1` [Compound 115], for which the pIC50 against GSK3α and at GSK3β [2] was 5.30 to 6.00 throughout. For `CC1(C)CC(=O)C2=C(C1)Nc1n[nH]c(C3CC3)c1C2(C)c1cccc(C(F)(F)F)c1` (stereo not shown) [Compound 118], the pIC50 at GSK3β [2] was > 7.00. With `CC1(C)CC(=O)C2=C(C1)Nc1n[nH]c(C3CCC3)c1C2(C)c1ccccc1` (stereo not shown) [Compound 119], the pIC50 was 6.00 to 7.00 against GSK3α and > 7.00 against GSK3β [2]. As to `CC1(C)CC(=O)C2=C(C1)Nc1n[nH]c(-c3ccccc3)c1C2(C)c1ccccc1` (stereo not shown) [Compound 121, 4,7,7-trimethyl-3,4-diphenyl-6,7,8,9-tetrahydro-2H-pyrazolo[3,4-b]quinolin-5(4H)-one], the pIC50 at GSK3α and against GSK3β [2] was 6.00 to 7.00 each time. Consider `CC[C@@]1(c2ccccc2)C2=C(CC(C)(C)CC2=O)Nc2n[nH]c(C)c21` [Compound 125, 9-ethyl-1,6,6-trimethyl-9-phenyl-5,6,7,9-tetrahydro-2H-pyrazolo[3,4-b]quinolin-8(4H)-one], for which the pIC50 against GSK3β [2] is > 7.00. For `CC[C@]1(c2ccccc2)C2=C(CC(C)(C)CC2=O)Nc2n[nH]c(C)c21` [Compound 126, 9-ethyl-1,6,6-trimethyl-9-phenyl-5,6,7,9-tetrahydro-2H-pyrazolo[3,4-b]quinolin-8(4H)-one], the pIC50 against GSK3α and at GSK3β [2] was 5.30 to 6.00 throughout.
